The record followed here is patent publication US6908931B2, “Tetrahydroisoquinoline derivatives as melatonin MT2 antagonists” (Bristol-Myers Squibb Company, priority 2003, dated 2005).

For one test, the target named is T1, human MT2 receptor (Homo sapiens, UniProt P49286).
T1 construct: melatonin MT1 and MT2 receptors cDNA were individually subcloned into pcDNA3 and introduced into NIH-3T3 cells using Lipofectamine; expressed in transfected cells
T1 sequence (P49286 1-362): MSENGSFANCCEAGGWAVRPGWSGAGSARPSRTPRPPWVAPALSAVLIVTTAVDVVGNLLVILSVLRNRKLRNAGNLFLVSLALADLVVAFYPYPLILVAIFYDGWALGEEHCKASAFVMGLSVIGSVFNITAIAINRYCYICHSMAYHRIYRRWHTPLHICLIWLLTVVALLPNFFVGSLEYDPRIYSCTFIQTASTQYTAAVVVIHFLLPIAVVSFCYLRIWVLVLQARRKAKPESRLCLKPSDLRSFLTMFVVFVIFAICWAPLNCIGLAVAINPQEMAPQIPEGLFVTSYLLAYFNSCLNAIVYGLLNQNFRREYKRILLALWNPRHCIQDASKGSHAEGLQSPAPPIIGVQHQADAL
Put plainly: Melatonin receptor binding assay (MT2), 2-[125I]-iodomelatonin.
Conditions: not given
Here is the method:
Melatonin receptor binding assay.
Membrane homogenates: melatonin MT1 and MT2 receptors cDNA were individually subcloned into pcDNA3 and introduced into NIH-3T3 cells using Lipofectamine. […] For preparing membrane homogenates, pellets are thawed on ice, and re-suspended in TME buffer in the presence of 10 μg/ml aprotinin and leupeptin, and 100 μM phenylmethylsulfonylfluoride. The cells were then homogenized using a dounce homogenizer, and centrifuged. The resulting pellet was re-suspended with dounce homogenizer in TME (supplemented with the above protease inhibitors) and frozen. On the day of assay, a small aliquot was thawed on ice and re-suspended in the ice cold TME (1:50-1:100 v/v) and held on ice until assayed. Incubation is at 37° C. for 1 hour. Reaction is terminated by filtration. Filters were washed 3 times.
The IC50 is the concentration that gives 50% inhibition. Molecule `O=C(OCc1ccccc1)N1CCc2cc3c(cc2C1CCc1ccc(F)cc1)OCO3` (stereo not drawn) [Example 100] displayed an IC50 of 100 to 1000 nM.

The test is the same for the next values; noted with them: membrane homogenates of NIH-3T3 cells expressing MT2; 2-[125I]-iodomelatonin 0.2 nM; 37° C., 1 hour; read-out: MT2 IC50.
Regarding `COc1cc2c(cc1OC)C(CCc1ccccc1)N(C(=O)c1cc(C(F)(F)F)cc(C(F)(F)F)c1)CC2` (stereo not drawn) [Example 69], the IC50 lay in the range of 100 to 1000 nM.
Same read-out and setting: for `COc1cc2c(cc1OC)C(CCc1ccccc1)N(C(=O)c1ccc(C(F)(F)F)cc1)CC2` (stereo not drawn) [Example 70] the value was 100 to 1000 nM; for `COc1ccc2c(c1)C(CC(c1ccccc1)c1ccccc1)N(C(=O)CC(C)(C)C)CC2` (stereo not drawn) [Example 78], 100 to 1000 nM.
Still for that read-out and setting: for `COc1ccc(C(=O)N2CCc3ccc(OC)cc3C2CC(c2ccccc2)c2ccccc2)cc1` (stereo not drawn) [Example 79] the value was 100 to 1000 nM; for `COc1ccc2c(c1)C(CC(c1ccccc1)c1ccccc1)N(C(=O)c1cccc([N+](=O)[O-])c1)CC2` (stereo not drawn) [Example 80], 100 to 1000 nM.
The same measure, in the same setting: then `COc1ccc2c(c1)C(CC(c1ccccc1)c1ccccc1)N(C(=O)c1ccc([N+](=O)[O-])cc1)CC2` (stereo not drawn) [Example 81], with 100 to 1000 nM; and `COc1ccc2c(c1)C(CC(c1ccccc1)c1ccccc1)N(C(=O)c1ccc(C)cc1)CC2` (stereo not drawn) [Example 82], with 100 to 1000 nM.
`COc1ccc2c(c1)C(CC(c1ccccc1)c1ccccc1)N(C(=O)c1cc(C(F)(F)F)cc(C(F)(F)F)c1)CC2` (stereo not drawn) [Example 83]: the IC50 fell in the range of 100 to 1000 nM.
Still for that read-out and setting: for `COc1cc2c(cc1OC)C(CC(c1ccccc1)c1ccc(Cl)cc1)N(C(C)=O)CC2` (stereo not drawn) [Example 84] the value was less than 100 nM; for `COc1cc2c(cc1OC)C(CC(c1ccc(Cl)cc1)c1ccc(Cl)cc1)N(C(C)=O)CC2` (stereo not drawn) [Example 85], less than 100 nM; for `COc1cccc(CCC2c3cc(OC)c(OC)cc3CCN2C(C)=O)c1` (stereo not drawn) [Example 86], less than 100 nM.
Same read-out and setting: for `CCC(=O)N1CCc2cc(OC)c(OC)cc2C1CCc1cccc(OC)c1` (stereo not drawn) [Example 87] the value was less than 100 nM.
Same read-out and setting: for `CCNC(=O)N1CCc2cc(OC)c(OC)cc2C1CCc1cccc(OC)c1` (stereo not drawn) [Example 88] the value was less than 100 nM; for `COc1ccc2c(c1)C(CCc1ccc(F)cc1)N(C(C)=O)CC2` (stereo not drawn) [Example 90], less than 100 nM.
As to `CC(=O)N1CCc2cc3c(cc2C1CC(c1ccccc1)c1ccccc1)OCO3` (stereo not drawn) [Example 91], the IC50 lay in the range of 100 to 1000 nM.
For the molecule `O=C(c1ccccc1)N1CCc2cc3c(cc2C1CCc1ccc(F)cc1)OCO3` (stereo not drawn) [Example 93], the IC50 fell in the range of 100 to 1000 nM.
The same measure, in the same setting: then `CC(=O)N1CCc2cc3c(cc2C1CCc1ccc(F)cc1)OCO3` (stereo not drawn) [Example 94], with 100 to 1000 nM; and `O=C(C1CC1)N1CCc2cc3c(cc2C1CCc1ccc(F)cc1)OCO3` (stereo not drawn) [Example 95], with less than 100 nM.
On to `COCC(=O)N1CCc2cc3c(cc2C1CCc1ccc(F)cc1)OCO3` (stereo not drawn) [Example 96], for which the IC50 was less than 100 nM.
Still for that read-out and setting: for `O=C(CCl)N1CCc2cc3c(cc2C1CCc1ccc(F)cc1)OCO3` (stereo not drawn) [Example 98] the value was less than 100 nM.
Same read-out and setting: then `CCCC(=O)N1CCc2cc3c(cc2C1CCc1ccc(F)cc1)OCO3` (stereo not drawn) [Example 101], with less than 100 nM.
On the same count and under the same terms, then `O=C(C1CCCC1)N1CCc2cc3c(cc2C1CCc1ccc(F)cc1)OCO3` (stereo not drawn) [Example 102], with less than 100 nM; and `O=C(c1ccno1)N1CCc2cc3c(cc2C1CCc1ccc(F)cc1)OCO3` (stereo not drawn) [Example 103], with less than 100 nM.
`CC(=O)OCC(=O)N1CCc2cc3c(cc2C1CCc1ccc(F)cc1)OCO3` (stereo not drawn) [Example 104]: the IC50 is 100 to 1000 nM.
On the same count and under the same terms, for `CCC(=O)N1CCc2cc3c(cc2C1CCc1ccc(F)cc1)OCO3` (stereo not drawn) [Example 105] the value was less than 100 nM; for `CC(C)COC(=O)N1CCc2cc3c(cc2C1CCc1ccc(F)cc1)OCO3` (stereo not drawn) [Example 106], 100 to 1000 nM.
`CC(C)(C)CC(=O)N1CCc2cc3c(cc2C1CCc1ccc(F)cc1)OCO3` (stereo not drawn) [Example 107]: the IC50 fell in the range of 100 to 1000 nM.
For the molecule `O=C(C=Cc1ccccc1)N1CCc2cc3c(cc2C1CCc1ccc(F)cc1)OCO3` (stereo not drawn) [Example 108], the IC50 is 100 to 1000 nM.
On the same count and under the same terms, for `COc1ccc2c(c1)C(CCc1ccc(F)cc1)N(C(=O)C1CC1)CC2` (stereo not drawn) [Example 109] the value was less than 100 nM; for `COCC(=O)N1CCc2ccc(OC)cc2C1CCc1ccc(F)cc1` (stereo not drawn) [Example 110], less than 100 nM.
For the molecule `COc1ccc(C(=O)N2CCc3ccc(OC)cc3C2CCc2ccc(F)cc2)cc1` (stereo not drawn) [Example 111], the IC50 lay within 100 to 1000 nM.
The same measure, in the same setting: then `COc1ccc2c(c1)C(CCc1ccc(F)cc1)N(C(=O)CCl)CC2` (stereo not drawn) [Example 112], with less than 100 nM.
On to `COC(=O)N1CCc2ccc(OC)cc2C1CCc1ccc(F)cc1` (stereo not drawn) [Example 113], for which the half-maximal inhibitory concentration (IC50) is less than 100 nM.
Same read-out and setting: for `COc1ccc2c(c1)C(CCc1ccc(F)cc1)N(C(=O)OCc1ccccc1)CC2` (stereo not drawn) [Example 114] the value was 100 to 1000 nM.
Same read-out and setting: for `CCCC(=O)N1CCc2ccc(OC)cc2C1CCc1ccc(F)cc1` (stereo not drawn) [Example 115] the value was less than 100 nM.
As to `COc1ccc2c(c1)C(CCc1ccc(F)cc1)N(C(=O)C1CCCC1)CC2` (stereo not drawn) [Example 116], the IC50 is less than 100 nM.
The same measure, in the same setting: then `COc1ccc2c(c1)C(CCc1ccc(F)cc1)N(C(=O)c1ccno1)CC2` (stereo not drawn) [Example 117], with less than 100 nM; and `COc1ccc2c(c1)C(CCc1ccc(F)cc1)N(C(=O)COC(C)=O)CC2` (stereo not drawn) [Example 118], with 100 to 1000 nM.
Turning to `CCC(=O)N1CCc2ccc(OC)cc2C1CCc1ccc(F)cc1` (stereo not drawn) [Example 119], the IC50 was less than 100 nM.
Turning to `COc1ccc2c(c1)C(CCc1ccc(F)cc1)N(C(=O)OCC(C)C)CC2` (stereo not drawn) [Example 120], the IC50 was 100 to 1000 nM.
Regarding `COc1ccc2c(c1)C(CCc1ccc(F)cc1)N(C(=O)CC(C)(C)C)CC2` (stereo not drawn) [Example 121], the IC50 is 100 to 1000 nM.
The same measure, in the same setting: then `COc1ccc2c(c1)C(CCc1ccc(F)cc1)N(C(=O)C=Cc1ccccc1)CC2` (stereo not drawn) [Example 122], with 100 to 1000 nM; and `COC(=O)N1CCc2cc3c(cc2C1CCc1ccc(F)cc1)OCC3` (stereo not drawn) [Example 129], with 100 to 1000 nM; and `CC(=O)OCC(=O)N1CCc2cc3c(cc2C1CCc1ccc(F)cc1)OCC3` (stereo not drawn) [Example 133], with 100 to 1000 nM.
Same read-out and setting: for `CC(C)COC(=O)N1CCc2cc3c(cc2C1CCc1ccc(F)cc1)OCC3` (stereo not drawn) [Example 135] the value was 100 to 1000 nM; for `O=C(c1ccccc1)N1CCc2cc3c(cc2C1CCc1ccc(Cl)cc1)OCO3` (stereo not drawn) [Example 137], 100 to 1000 nM; for `CC(=O)N1CCc2cc3c(cc2C1CCc1ccc(Cl)cc1)OCO3` (stereo not drawn) [Example 138], 100 to 1000 nM.
On the same count and under the same terms, then `O=C(C1CC1)N1CCc2cc3c(cc2C1CCc1ccc(Cl)cc1)OCO3` (stereo not drawn) [Example 139], with less than 100 nM.
Turning to `COCC(=O)N1CCc2cc3c(cc2C1CCc1ccc(Cl)cc1)OCO3` (stereo not drawn) [Example 140], the IC50 was less than 100 nM.
The same measure, in the same setting: then `COc1ccc(C(=O)N2CCc3cc4c(cc3C2CCc2ccc(Cl)cc2)OCO4)cc1` (stereo not drawn) [Example 141], with 100 to 1000 nM; and `O=C(CCl)N1CCc2cc3c(cc2C1CCc1ccc(Cl)cc1)OCO3` (stereo not drawn) [Example 142], with less than 100 nM; and `O=C(OCc1ccccc1)N1CCc2cc3c(cc2C1CCc1ccc(Cl)cc1)OCO3` (stereo not drawn) [Example 143], with 100 to 1000 nM.
Same read-out and setting: then `CCCC(=O)N1CCc2cc3c(cc2C1CCc1ccc(Cl)cc1)OCO3` (stereo not drawn) [Example 144], with less than 100 nM.
Same read-out and setting: then `O=C(c1ccno1)N1CCc2cc3c(cc2C1CCc1ccc(Cl)cc1)OCO3` (stereo not drawn) [Example 145], with 100 to 1000 nM; and `CC(=O)OCC(=O)N1CCc2cc3c(cc2C1CCc1ccc(Cl)cc1)OCO3` (stereo not drawn) [Example 146], with 100 to 1000 nM; and `CCC(=O)N1CCc2cc3c(cc2C1CCc1ccc(Cl)cc1)OCO3` (stereo not drawn) [Example 147], with less than 100 nM.
Consider `CC(C)COC(=O)N1CCc2cc3c(cc2C1CCc1ccc(Cl)cc1)OCO3` (stereo not drawn) [Example 148], for which the IC50 is 100 to 1000 nM.
As to `CC(C)(C)CC(=O)N1CCc2cc3c(cc2C1CCc1ccc(Cl)cc1)OCO3` (stereo not drawn) [Example 149], the IC50 lay within 100 to 1000 nM.
Still for that read-out and setting: for `O=C(C=Cc1ccccc1)N1CCc2cc3c(cc2C1CCc1ccc(Cl)cc1)OCO3` (stereo not drawn) [Example 150] the value was 100 to 1000 nM.
